Source: US20210403864A1, “METHODS AND COMPOSITIONS FOR TREATING ACTIVATED G-ALPHA Q MUTANT CANCERS OR MELANOCYTIC MALIGNANCIES” (Memorial Sloan Kettering Cancer Center, priority 2018, published 2021)
Positions count from the first letter of the chain named.

Tests used:
Assay type in all cases: cell-based
GNAQ^Q209L = target: T1, GNAQ^Q209L (Homo sapiens, UniProt P50148, Q209L); test: IP1 accumulation assay in transiently transfected HEK293T cells; details: 24-hour treatment
T1 construct: host or cells: melan-a (immortalized mouse melanocytes), retroviral transduction with MSCV-Puro
T1 sequence (P50148 1-359 Q209L): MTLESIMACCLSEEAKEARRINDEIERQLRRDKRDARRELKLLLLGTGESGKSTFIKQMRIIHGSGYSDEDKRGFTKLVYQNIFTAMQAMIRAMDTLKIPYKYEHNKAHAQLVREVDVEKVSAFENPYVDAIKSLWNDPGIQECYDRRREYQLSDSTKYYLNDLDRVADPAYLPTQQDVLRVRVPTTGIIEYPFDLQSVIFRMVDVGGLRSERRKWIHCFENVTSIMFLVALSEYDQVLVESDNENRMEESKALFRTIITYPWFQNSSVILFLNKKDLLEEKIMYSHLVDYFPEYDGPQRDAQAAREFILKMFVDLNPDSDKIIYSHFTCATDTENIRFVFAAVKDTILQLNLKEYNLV
Description: (§1) Cells were treated with YM at increasing doses for 24 hours. Error bars, s.e.m. from three biological replicates, each with three technical replicates.
(§2) Exogenous Gene Expression. HEK293T cells were transiently transfected to express vectors containing synthetic CYSLTR2 (Moore A R, et al., Nat Genet. 48(6):675 (2016)) and GNAQ. Genewiz was used to codon optimize these sequences for expression in mammalian cells. The human GNAQ α-subunit plasmids encoding for GNAQ mutants Q209L, R183Q and G48V were generated by Quick Change (Agilent Technologies, Santa Clara, Calif.) site-directed mutagenesis. HEK293T cells were transiently transfected with the plasmids encoding for GNAQ WT and mutants subcloned into pcDNA3.1(+) using Lipofectamine according to the manufacturer's instructions. Briefly, 9,000 HEK293T cells were transfected in low-volume 384-well plates with 11 ng of total DNA/well for 24 hours. Human cDNAs for WT CYSLTR2 and GNAQ were obtained from Origene and cloned into MSCV-Puro (Addgene plasmid #68469) for stable expression in melan-a cells via retroviral transduction with X-tremeGENE 9 (Sigma-Aldrich, St. Louis Mo.). Quikchange primers were used to introduce the various mutant constructs. All constructs were confirmed by sequencing. The primers used in the experiments described herein are provided below: […]
(§3) IP1 Accumulation Assay. IP1 concentrations in GNAQ-transfected HEK293T cells, GNAQ-expressing melan-a cells and uveal melanoma cells was measured using a competitive homogenous time resolved fluorescence (HTRF) assay (CisBio, Bedford, Mass.). Briefly, 9,000 transiently transfected-HEK293T cells, 5,000 melan-a cells and 5,000 uveal melanoma cells were seeded in low-volume 384-well plates in 7 μL media for 24 hours prior YM-254890 treatment. Cells were then treated with various concentrations of YM-254890 diluted in the appropriate media at 37° C. for 3 hours or 24 hours. […] Following incubation, cells were lysed by adding 3 μL/well of d2-labeled IP1 analogue as the fluorescence acceptor and the Terbium cryptate-labeled anti-IP1 mAb as the fluorescence donor, diluted in the kit-supplied lysis buffer. The plates were incubated overnight at RT and time-resolved fluorescence signals were read using the BioTek Synergy NEO plate reader (BioTek Instruments, Winooski, Vt.) at 620 nm and […]. Results were calculated as a 665 nm/620 nm signal ratio, and IP1 concentrations were interpolated from a standard curve prepared using the supplied IP1 calibrator. […] Dose-response curves and bar graphs were analyzed using GraphPad Prism 7.0 software. […]

GNAQ^R183Q = target: T2, GNAQ^R183Q (Homo sapiens, UniProt P50148, R183Q); test: as above; details: 24-hour treatment
T2 construct: host or cells: melan-a (immortalized mouse melanocytes), retroviral transduction with MSCV-Puro
T2 sequence (P50148 1-359 R183Q): T1 sequence (P50148 1-359 Q209L) with R183Q, L209Q
Description: as §1, §2, §3

GNAQ^G48V = target: T3, GNAQ^G48V (Homo sapiens, UniProt P50148, G48V); test: as above; details: 24-hour treatment
T3 construct: host or cells: melan-a (immortalized mouse melanocytes), retroviral transduction with MSCV-Puro
T3 sequence (P50148 1-359 G48V): T1 sequence (P50148 1-359 Q209L) with G48V, L209Q
Description: as §1, §2, §3

[1] = tested on: human UVM cell lines that harbored the GNAQ^Q209L/P mutation; test: IP1 accumulation assay in UVM cells; details: YM treatment at 24 hours
Description: Cells were treated with increasing concentrations of YM for 3 hours (top) and 24 hours (bottom). Error bars, s.e.m from three biological replicates, each with three technical replicates.
as §3, with “treatment.” for “treatment. Cells were then treated with various concentrations of YM-254890 diluted in the appropriate media at 37° C. for 3 hours or 24 hours.”

YM-254890
inhibition of signaling (IP1 accumulation) (GNAQ^Q209L): incompletely/poorly inhibited | relative sensitivity to YM (IP1 accumulation) (GNAQ^Q209L): most resistant | fold less sensitive to YM compared to CYSLTR2^L129Q and GNAQ^G48V (IP1 accumulation) (GNAQ^R183Q): ~20 fold | potency of inhibition of IP1 accumulation (GNAQ^G48V): subnanomolar potency | inhibition of IP1 accumulation [1]: inhibited
